This passage reports TGI results from PubChem BioAssay (NCI).

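Protocol summary: plate cells (96-well), add compound at 5 concentrations, incubate 48 h, interpolate endpoints linearly. TGI is the concentration that stops growth completely.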

Test systems include 786-0 renal; SNB-75 CNS; TK-10 renal; EKVX NSCLC; SN12C renal; ACHN renal; NCI-H226 lung; SW-620 colon; BT-549 breast; RXF 393 renal; NCI-H460 lung; A498 renal; SNB-19 CNS; K-562 leukemia; A549 NSCLC; OVCAR-8 ovarian; NCI/ADR-RES ovarian; MALME-3M melanoma; KM12 colon.
Holding throughout (test): NCI tumour cell line growth inhibition, 48 h

With `O=C1C(=O)c2c(oc(=O)c3ccccc23)-c2ccccc21`, the TGI in the assay on 786-0 renal, with SNB-75 CNS, in the assay on TK-10 renal, in the assay on EKVX NSCLC, in the assay with SN12C renal and with ACHN renal was greater than 25 µM each time. Also, the TGI with NCI-H226 lung, with SW-620 colon, with BT-549 breast, in the assay on RXF 393 renal, with NCI-H460 lung and with A498 renal was greater than 25 µM throughout. Also, the TGI in the assay on SNB-19 CNS, in the assay with K-562 leukemia, with A549 NSCLC, with OVCAR-8 ovarian, in the assay with NCI/ADR-RES ovarian and in the assay with MALME-3M melanoma was greater than 25 µM in each case. Further, the TGI in the assay with KM12 colon was greater than 25 µM.

On to `COC(=O)C1=C(O)C(C(=O)OC)[C@]2(O)[C@H](C(=O)OC)[C@H]1C[C@@H](c1ccc(F)cc1)[C@H]2C(=O)OC` (stereo partly drawn), for which the TGI with 786-0 renal turned out to be 32 µM; with SNB-75 CNS, 73.2 µM; with TK-10 renal it was 57.5 µM; with EKVX NSCLC, 41.3 µM; in the assay with SN12C renal, 26.3 µM; in the assay with ACHN renal, 43.5 µM. Further, the TGI in the assay on NCI-H226 lung stood at 49.9 µM; in the assay with SW-620 colon, 53.4 µM; in the assay on BT-549 breast it was 65.9 µM; in the assay on RXF 393 renal it was 26.5 µM; in the assay on NCI-H460 lung, 63.1 µM; in the assay on A498 renal, 35.1 µM. Also, the TGI in the assay with SNB-19 CNS was greater than 100 µM; with K-562 leukemia, greater than 100 µM; in the assay on A549 NSCLC, greater than 100 µM; with OVCAR-8 ovarian, 86.8 µM; with NCI/ADR-RES ovarian, 36.8 µM; in the assay with MALME-3M melanoma it was 28 µM. In the assay with KM12 colon, this compound had a TGI of 47.9 µM.

With `COc1ccc2cc(CNCCCCCCCCCCCCNCc3ccc4cc(OC)ccc4c3)ccc2c1`, the TGI with 786-0 renal is 30.1 µM; in the assay with SNB-75 CNS, 28.7 µM; in the assay with TK-10 renal it was 32.8 µM; in the assay with EKVX NSCLC, 37.6 µM; in the assay with SN12C renal, 46.9 µM; in the assay on ACHN renal, 36.6 µM. The TGI in the assay with NCI-H226 lung was 32.5 µM; in the assay with SW-620 colon it was greater than 51.9 µM; with BT-549 breast, 33 µM; with RXF 393 renal it was 28.7 µM; in the assay on NCI-H460 lung it was 35.8 µM; in the assay with A498 renal, 31.9 µM. The TGI was 31.3 µM with SNB-19 CNS; greater than 50 µM with K-562 leukemia; greater than 54.8 µM in the assay on A549 NSCLC; 32.4 µM in the assay on OVCAR-8 ovarian; 43 µM with NCI/ADR-RES ovarian; 31.8 µM in the assay with MALME-3M melanoma. Moreover, the TGI in the assay with KM12 colon was 40.1 µM.

For `COc1nc(C)nc2sc3c(c12)CCCC3`, the TGI with 786-0 renal, with SNB-75 CNS, in the assay on TK-10 renal, in the assay with EKVX NSCLC, in the assay on SN12C renal and in the assay on ACHN renal was greater than 100 µM each time. Moreover, the TGI with NCI-H226 lung, with SW-620 colon, in the assay with BT-549 breast, with RXF 393 renal, with NCI-H460 lung and with A498 renal was greater than 100 µM in each case. The TGI in the assay with SNB-19 CNS, with K-562 leukemia, in the assay on OVCAR-8 ovarian, with NCI/ADR-RES ovarian, with MALME-3M melanoma and in the assay on KM12 colon was greater than 100 µM throughout.

On to `CN(C)c1ccc(/C=N\NC(=O)c2ccccc2Nc2ccccc2C(=O)N/N=C/c2ccc(N(C)C)cc2)cc1`, for which the TGI with 786-0 renal, with SNB-75 CNS, in the assay on TK-10 renal, in the assay with EKVX NSCLC, with SN12C renal and with ACHN renal was greater than 100 µM throughout. For the same compound, the TGI in the assay with NCI-H226 lung, with SW-620 colon, with BT-549 breast, with RXF 393 renal, in the assay on NCI-H460 lung and with A498 renal was greater than 100 µM throughout. Also, the TGI in the assay with SNB-19 CNS was greater than 100 µM; in the assay on K-562 leukemia it was greater than 100 µM; in the assay with A549 NSCLC, greater than 100 µM; in the assay on OVCAR-8 ovarian, greater than 100 µM; in the assay with NCI/ADR-RES ovarian, greater than 100 µM; in the assay with MALME-3M melanoma it was 98 µM. This compound also had a TGI in the assay on KM12 colon greater than 100 µM.

With `CO[C@H]1c2cccc3cccc(c23)[C@@H]1n1[nH]c(=O)n(C(C)(C)C)c1=O`, the TGI with 786-0 renal, with SNB-75 CNS, in the assay with TK-10 renal, in the assay on EKVX NSCLC, with SN12C renal and with NCI-H226 lung was greater than 100 µM in each case. Moreover, the TGI in the assay with SW-620 colon, in the assay on BT-549 breast, in the assay with RXF 393 renal, in the assay with NCI-H460 lung, with A498 renal and with SNB-19 CNS was greater than 100 µM each time. For the same compound, the TGI with K-562 leukemia, with A549 NSCLC, in the assay with OVCAR-8 ovarian, with NCI/ADR-RES ovarian, in the assay with MALME-3M melanoma and with KM12 colon was greater than 100 µM throughout.

As for `COc1cccc(OC/C(N=Cc2cccnc2)=N/NC(=O)c2ccncc2)c1`, the TGI in the assay on 786-0 renal, in the assay with SNB-75 CNS, with TK-10 renal, in the assay with EKVX NSCLC, in the assay on ACHN renal and in the assay with NCI-H226 lung was greater than 100 µM throughout. Further, the TGI in the assay on SW-620 colon, in the assay on BT-549 breast, in the assay with RXF 393 renal, in the assay with NCI-H460 lung, with A498 renal and in the assay with SNB-19 CNS was greater than 100 µM throughout. The TGI in the assay on K-562 leukemia, in the assay with A549 NSCLC, with OVCAR-8 ovarian, in the assay with NCI/ADR-RES ovarian, in the assay with MALME-3M melanoma and with KM12 colon was greater than 100 µM in each case.

On to `CC(=O)Oc1cc2c(n(C)c1=O)-c1ccccc1C2`, for which the TGI in the assay with 786-0 renal, in the assay on SNB-75 CNS, in the assay on TK-10 renal, with SN12C renal, with ACHN renal and in the assay on NCI-H226 lung was greater than 100 µM in each case. For the same compound, the TGI with SW-620 colon was 65.9 µM; in the assay with BT-549 breast it was greater than 100 µM; with RXF 393 renal it was greater than 100 µM; in the assay on NCI-H460 lung, greater than 100 µM; in the assay with A498 renal, greater than 100 µM; in the assay on SNB-19 CNS, greater than 100 µM. In addition, the TGI was greater than 100 µM in the assay on K-562 leukemia; greater than 100 µM in the assay on A549 NSCLC; greater than 100 µM in the assay with OVCAR-8 ovarian; 58.3 µM in the assay with NCI/ADR-RES ovarian; greater than 100 µM in the assay on MALME-3M melanoma; greater than 100 µM in the assay with KM12 colon.
